From BindingDB's records for doi:10.1021/acs.jnatprod.6b01177 (Hirosaki University, 2017)

Columns and labels:
[1] = Inhibition of human erythrocyte 20s proteasome caspase-like activity using Z-LLE-MCA as substrate pretreated for 10 mins followed by substrate addition measured after 3 hrs by spectrophotometric method
[2] = Inhibition of human erythrocyte 20s proteasome trypsin-like activity using Boc-LRR-MCA as substrate pretreated for 10 mins followed by substrate addition measured after 3 hrs by spectrophotometric method

For C=C1CC[C@H]2C(C)(C)[C@H](O)CC[C@]2(C)[C@H]1CC1=C(O)C(=O)C2=C(C1=O)[C@@]13C=C[C@@H](O)[C@H](O)[C@]1(C2)C(=O)c1c(O)cc(C)cc1C3=O, which IC50 [1] is on record?
The IC50 was 17.3 µM.

What about the IC50 [2] of the same compound?
The IC50 was greater than 50 µM.
